Reference: patent publication US4612322A, “Azole type dioxolane derivatives” (Shionogi & Co., Ltd., priority 1983, dated 1986)
Values after ≈ are worked out from the molar mass of the structure shown.

Experiments:
Candida albicans KE-2 [1] = experiment: Test on inhibition against formation of the pseudohyphae in Candida albicans; type: cell-based; settings: KE2; Candida albicans KE-2, 1×10^6 cells/ml, Eagle broth + 20% bovine serum, 37° C., 18 hours; read-out: Inhibitory concentration against pseudohyphae formation
Method: To Eagle MEN broth (Nissan 2, Nissui Seiyaku Co., Ltd.) was added 20% bovine serum and inoculated Candida albicans KE-2 yeast cells at rate of 1×10^6 cells/ml (final inoculum size), and each test compound was added thereto in two-fold serial dilution method. After termination of cultivation at 37° C. for 18 hours, each organism of the serial dilution was smeared and fixed on a slide glass and stained by Giemsa's staining, and occurrence of the pseudohyphae was observed under a microscope. Minimum concentration which could inhibit the formation of pseudohyphae was regarded as the inhibitory concentration of the compound against pseudohyphae formation.

Candida albicans KE-2 [2] = experiment: Therapeutic effect against experimental candidasis in mice; type: in vivo, Jcl-ICR female mice; settings: 15th day from infection; 25 mg/Kg oral, twice per day for 5 days; 5×10^5 Candida albicans KE-2 cells i.v.; eight mice; control 0
Method: Candida albicans KE-2 was cultured in a Sabouraud's dextrose agar at 28° C. for 48 hours, and the resulting culture was suspended in the Sabouraud's dextrose broth. The resulting cells (5×10^5) were intravenously administered at the tail of Jcl-ICR female mice (4 weeks age, body weight: 18-20 g). Each test compound suspended in 2% gum-arabic was orally administered at a dose of 25 mg/Kg twice per day for 5 days; on the first day, the test compound is administered twice, i.e., immediately after the infection and 2 hours later; on the second day or later, 24 hours after the administration of the previous day respectively. After the infection, no test compound was administered to a control group. Eight mice were employed in the control group and the test groups to which the test compound was administered The therapuetic effect was evaluated on the survival rate at the 15th day from the day of infection; the result is shown below.

Trichophyton asteroides = experiment: Antimycotic test against Trichophyton asteroides (in vitro, Sabouraud's dextrose broth); type: cell-based; settings: read-out: Minimum Inhibitory Concentration (MIC)
Excerpt: Sabouraud's dextrose broth* was used as culture medium.

[3] = in vivo, po; cited from earlier work

Compound | MIC (Trichophyton asteroides) [µg/mL] | minimal effective concentration (Candida albicans KE-2 [1]) [µg/mL] | Survival rate (Candida albicans KE-2 [2]) [%] | adverse reactions [3]
CC(C)C1OC(=O)OC1(Cn1cncn1)c1ccc(Cl)cc1Cl (stereo not shown) [Compound 2] | 3.1 (≈ 8.7 µM) | 0.63 | 100 | –
O=C1OC(c2ccc(Cl)cc2Cl)C(Cn2cncn2)(c2ccc(Cl)cc2)O1 (stereo not shown) [Compound 5] | – | 0.63 | 100 | –
O=C1OC(c2ccccc2Cl)C(Cn2cncn2)(c2ccccc2Cl)O1 (stereo not shown) [Compound 7] | – | 0.31 | – | –
O=C1OC(c2ccc(F)cc2)C(Cn2cncn2)(c2ccc(F)cc2)O1 (stereo not shown) [Compound 8] | 3.1 (≈ 8.68 µM) | – | – | –
Cc1ccc(C2OC(=O)OC2(Cn2cncn2)c2ccc(C)cc2)cc1 (stereo not shown) [Compound 11] | – | 1.25 | – | –
Cc1ccc(C2OC(=O)OC2(Cn2cncn2)c2ccccc2Cl)cc1 (stereo not shown) [Compound 15] | 3.1 (≈ 8.38 µM) | 0.63 | – | –
CC(=O)N1CCN(c2ccc(OCC3COC(Cn4ccnc4)(c4ccc(Cl)cc4Cl)O3)cc2)CC1 (stereo not shown) [Ketoconazole] | – | – | – | hepatic dysfunction

Further compounds by falling MIC (Trichophyton asteroides), results first:

MIC (Trichophyton asteroides) [µg/mL] | Compound | minimal effective concentration (Candida albicans KE-2 [1]) [µg/mL] | Survival rate (Candida albicans KE-2 [2]) [%] | adverse reactions [3]
1.6 (≈ 4.49 µM) | CCCC1OC(=O)OC1(Cn1cncn1)c1ccc(Cl)cc1Cl (stereo not shown) [Compound 12] | – | – | –
0.8 (≈ 1.82 µM) | CC1(C)OC(c2ccc(Cl)cc2Cl)C(Cn2cncn2)(c2ccc(Cl)cc2)O1 (stereo not shown) [Compound 39, 4-(4-chlorophenyl)-5-(2,4-dichlorophenyl)-2,2-dimethyl-4-(1H-1,2,4-triazol-1-yl)methyl-1,3-dioxolane] | 5 | – | –
0.2 (≈ 0.471 µM) | O=C1OC(c2ccc(Cl)cc2)C(Cn2cncn2)(c2ccc(Cl)cc2Cl)O1 (single isomer, unassigned) [Compound 19] | 0.04 | 86 | –
0.2 (≈ 0.54 µM) | CCCCC1OC(=O)OC1(Cn1cncn1)c1ccc(Cl)cc1Cl (stereo not shown) [Compound 4] | – | – | –
0.2 (≈ 0.65 µM) | CCCC1OCOC1(Cn1cncn1)c1ccc(Cl)cc1 (stereo not shown) [Compound 33] | 0.16 | – | –
0.1 (≈ 0.225 µM) | O=S1OC(c2ccc(Cl)cc2Cl)C(Cn2cncn2)(c2ccc(Cl)cc2)O1 (single isomer, unassigned) [Compound 27B] | 0.02 | 75 | –
0.1 (≈ 0.245 µM) | O=C1OC(c2ccc(F)cc2)C(Cn2cncn2)(c2ccc(Cl)cc2Cl)O1 (stereo not shown) [Compound 1, 4-(2,4-dichlorophenyl)-5-(4-fluorophenyl)-2-oxo-4-(1H-1,2,4-triazol-1-yl)methyl-1,3-dioxolane] | 0.31 | 87.5 | –
0.1 (≈ 0.256 µM) | O=C1OC(c2ccccc2)C(Cn2cncn2)(c2ccc(Cl)cc2Cl)O1 (stereo not shown) [Compound 3] | – | – | –
0.1 (≈ 0.257 µM) | O=C1OC(c2ccccc2)C(Cn2ccnc2)(c2ccc(Cl)cc2Cl)O1 (stereo not shown) [Compound 23] | 0.16 | – | –
0.1 (≈ 0.254 µM) | Fc1ccc(C2OCOC2(Cn2cncn2)c2ccc(Cl)cc2Cl)cc1 (stereo not shown) [Compound 34] | 0.31 | – | –
